From patent US11926602B1, “4-amino-5-(4-fluoro-3-phenoxyphenyl)-4H-1,2,4-triazole-3-thiol derivatives as antifungal agents” (KING FAISAL UNIVERSITY, priority 2023, dated 2024)
Converted amounts (≈) assume the structure as drawn.

Experiments:
[1] = tested on: Trichophyton rubrum (ATCC RCMB 05064); test: Antifungal microdilution assay, MIC against Trichophyton rubrum; format: cell-based; conditions: RCMB05064, 0.49-125 μg/mL tested over 48 h, read-out: Minimum inhibitory concentration T. rubrum
Description: (§1) The calculation of the minimum inhibitory concentrations (MICs) for the tested compounds was done against Candida parapsilosis (ATCC RCMB 05064); Candida albicans (ATCC RCMB 05064): Candida tropicalis (ATCC RCMB 05064); Aspergillus niger (ATCC RCMB 05064); Trichophyton rubrum (ATCC RCMB 05064). Microdilution assay was used to evaluate the tested compounds (2, 2a-2h) for their antifungal activity (Anaissie, E. J.; Paetznick, V. L.; Ensign, L. G.; Espinel-Ingroff, A.; Galgiani, J. N.; Hitchcock, C. A.; LaRocco. M.; Patterson. T.; Pfaller, M. A.; Rex, J. H.; et al. Microdilution antifungal susceptibility testing of Candida albicans and Cryptococcus neoformans with and without agitation: An eight-center collaborative study. Antimicrob. Agents Chemother. 1996, 40, 2387-2391). Different concentrations were tested from each compound; 0.49, 0.98, 1.95, 3.9, 7.81, 15.63, 31.25, 62.5, and 125 μg/mL over 48 h.
(§2) The observed antifungal activity of the present 4-amino-5-(4-fluoro-3-phenoxyphenyl)-4H-1,2,4-triazole-3-thiol (2) and its derivatives (2a-h) against various fungi are summarized below in Table 2.

[2] = tested on: Aspergillus niger (ATCC RCMB 05064); test: Antifungal microdilution assay, MIC against Aspergillus niger; format: cell-based; conditions: RCMB05064, 0.49-125 μg/mL tested over 48 h, read-out: Minimum inhibitory concentration A. niger
Description: as §1, §2

[3] = tested on: Candida albicans (ATCC RCMB 05064); test: Antifungal microdilution assay, MIC against Candida albicans; format: cell-based; conditions: RCMB05064, 0.49-125 μg/mL tested over 48 h, read-out: Minimum inhibitory concentration C. albicans
Description: as §1, §2

[4] = tested on: Candida tropicalis (ATCC RCMB 05064); test: Antifungal microdilution assay, MIC against Candida tropicalis; format: cell-based; conditions: RCMB05064, 0.49-125 μg/mL tested over 48 h, read-out: Minimum inhibitory concentration C. tropicalis
Description: as §1, §2

[5] = tested on: Candida parapsilosis (ATCC RCMB 05064); test: Antifungal microdilution assay, MIC against Candida parapsilosis; format: cell-based; conditions: Lodderomyces parapsilosis, RCMB05064, 0.49-125 μg/mL tested over 48 h, read-out: Minimum inhibitory concentration C. parapsilosis
Description: as §1, §2

Nn1c(SCc2cnc(Cl)s2)nnc1-c1ccc(F)c(Oc2ccccc2)c1 [Compound 2g, 3-(((2-Chlorothiazol-5-yl)methyl)thio)-5-(4-fluoro-3-phenoxyphenyl)-4H-1,2,4-triazol-4-amine]
MIC [1]: 0.98 µg/mL (≈ 2.26 µM) | MIC [2]: 0.98 µg/mL (≈ 2.26 µM) | melting point: 136 °C | MIC [3]: 0.49 µg/mL (≈ 1.13 µM) | MIC [4]: 0.49 µg/mL (≈ 1.13 µM) | MIC [5]: 0.49 µg/mL (≈ 1.13 µM)

Fc1ccc(/C=N/n2c(-c3ccc(F)c(Oc4ccccc4)c3)n[nH]c2=S)cc1 [Compound 2d]
MIC [1]: 15.6 µg/mL (≈ 38.3 µM) | MIC [2]: 7.81 µg/mL (≈ 19.1 µM) | melting point: 172 °C | MIC [3]: 7.81 µg/mL (≈ 19.1 µM) | MIC [4]: 15.6 µg/mL (≈ 38.3 µM) | MIC [5]: 7.81 µg/mL (≈ 19.1 µM)

CSc1nnc(-c2ccc(F)c(Oc3ccccc3)c2)n1N [Compound 2f, 3-(4-Fluoro-3-phenoxyphenyl)-5-(methylthio)-4H-1,2,4-triazol-4-amine]
MIC [1]: 7.81 µg/mL (≈ 24.7 µM) | MIC [2]: 3.9 µg/mL (≈ 12.3 µM) | melting point: 152 °C | MIC [3]: 7.81 µg/mL (≈ 24.7 µM) | MIC [4]: 7.81 µg/mL (≈ 24.7 µM) | MIC [5]: 3.9 µg/mL (≈ 12.3 µM)

C=CCSc1nnc(-c2ccc(F)c(Oc3ccccc3)c2)n1N [Compound 2h, 3-(Allylthio)-5-(4-fluoro-3-phenoxyphenyl)-4H-1,2,4-triazol-4-amine]
MIC [1]: 1.95 µg/mL (≈ 5.7 µM) | MIC [2]: 0.98 µg/mL (≈ 2.86 µM) | melting point: 128 °C | MIC [3]: 0.98 µg/mL (≈ 2.86 µM) | MIC [4]: 0.49 µg/mL (≈ 1.43 µM) | MIC [5]: 0.49 µg/mL (≈ 1.43 µM)

OC(Cn1cncn1)(Cn1cncn1)c1ccc(F)cc1F [Fluconazole, reference compound]
MIC [1]: 1.95 µg/mL (≈ 6.37 µM) | MIC [2]: 0.49 µg/mL (≈ 1.6 µM) | MIC [3]: 0.49 µg/mL (≈ 1.6 µM) | MIC [4]: 0.98 µg/mL (≈ 3.2 µM) | MIC [5]: 0.49 µg/mL (≈ 1.6 µM)

Fc1ccc(-c2n[nH]c(=S)n2/N=C/c2cccc(Oc3ccccc3)c2)cc1Oc1ccccc1 [Compound 2e]
MIC [1]: 7.81 µg/mL (≈ 16.2 µM) | MIC [2]: 3.9 µg/mL (≈ 8.08 µM) | melting point: 132 °C | MIC [3]: 1.95 µg/mL (≈ 4.04 µM) | MIC [4]: 1.95 µg/mL (≈ 4.04 µM) | MIC [5]: 1.95 µg/mL (≈ 4.04 µM)

Fc1ccc(-c2n[nH]c(=S)n2/N=C/c2ccc(Cl)cc2)cc1Oc1ccccc1 [Compound 2b]
MIC [1]: 62.5 µg/mL (≈ 147 µM) | MIC [2]: 31.2 µg/mL (≈ 73.5 µM) | melting point: 174 °C | MIC [3]: 31.2 µg/mL (≈ 73.5 µM) | MIC [4]: 62.5 µg/mL (≈ 147 µM) | MIC [5]: 15.6 µg/mL (≈ 36.8 µM)

Fc1ccc(-c2n[nH]c(=S)n2/N=C/c2ccccc2)cc1Oc1ccccc1 [Compound 2a]
MIC [1]: 1.95 µg/mL (≈ 4.99 µM) | MIC [2]: 1.95 µg/mL (≈ 4.99 µM) | melting point: 189 °C | MIC [3]: 1.95 µg/mL (≈ 4.99 µM) | MIC [4]: 0.98 µg/mL (≈ 2.51 µM) | MIC [5]: 0.98 µg/mL (≈ 2.51 µM)

Nn1c(S)nnc1-c1ccc(F)c(Oc2ccccc2)c1 [Compound 2, 4-amino-5-(4-fluoro-3-phenoxyphenyl)-4H-1,2,4-triazole-3-thiol]
MIC [1]: 3.9 µg/mL (≈ 12.9 µM) | MIC [2]: 7.81 µg/mL (≈ 25.8 µM) | melting point: 205 to 207 °C | MIC [3]: 3.9 µg/mL (≈ 12.9 µM) | MIC [4]: 3.9 µg/mL (≈ 12.9 µM) | MIC [5]: 1.95 µg/mL (≈ 6.45 µM)

Fc1ccc(-c2nn(CN3CCOCC3)c(=S)n2/N=C/c2ccc(Cl)cc2)cc1Oc1ccccc1 [Compound 2c]
MIC [1]: 32.2 µg/mL (≈ 61.5 µM) | MIC [2]: 15.6 µg/mL (≈ 29.8 µM) | melting point: 146 °C | MIC [3]: 15.6 µg/mL (≈ 29.8 µM) | MIC [4]: 32.2 µg/mL (≈ 61.5 µM) | MIC [5]: 15.6 µg/mL (≈ 29.8 µM)
